Assay results: patent US10316057B2, “Tandem facial amphiphiles” (WISCONSIN ALUMNI RESEARCH FOUNDATION, priority 2011, dated 2019)
Several values for one entry are separate records, joined by “and”; a condition that tells them apart may be missing. Equal entries are not always repeated. Structures can show the parent of a compound that is named as a salt.

Experiments:
[1] = Critical micelle concentration by solubilization of a hydrophobic fluorescent dye; format: physicochemical; conditions: mean ± SD, n = 3
Excerpt: The “Critical Micelle Concentration” (CMC) refers to the concentration of a detergent (e.g., an amphiphile as described herein) in an aqueous solution at which the detergent molecules self-assemble into micelles. Below the CMC, detergents are mostly monomeric; above the CMC, micelle concentration increases linearly with detergent concentration. The CMC is dependent upon many factors and is detergent-specific. The CMC of a detergent can be determined experimentally by measuring the solubilization of a water-insoluble dye or fluorophore while varying the concentration of detergent. A CMC may also be determined by measuring the diminution of the surface tension of an aqueous solution as a function of detergent concentration (CMCs determined by either method correlate with each other). The CMC is determined by extrapolating the plot of solubilization vs. concentration (or surface tension vs. concentration) in the two linear regions above and below the CMC. Where the two lines intersect is the CMC. The CMC can also be determined by the method of Nugebauer, J. M. (1990), Methods in Enzymology, 182:239-253.
(§1) TFA-0 forms a hydrogel at concentrations >0.4 wt %, and this compound was not studied further. The other three TFAs are soluble to 5-10 wt % in aqueous media. Critical micelle concentrations (CMC) were determined by monitoring solubilization of a hydrophobic fluorescent dye, […] (Chattopadhyay et al., Anal. Biochem. 1984, 139, 408-412), and the hydrodynamic radii (Rh) of the micelles were determined via dynamic light scattering (DLS). Table 1 compares the data for TFAs with those for DDM, a conventional detergent that is very widely used for MP applications; DDM and the TFAs share maltose as their hydrophilic moieties. CMC values of the three TFAs are smaller than that of DDM, whether CMC is measured in units of mM or wt %.
Analysis of these TFAs for their CMC values provided the data in Table 3.

[2] = test system: leucine transporter (LeuT WT); experiment: LeuT functionality assay ([3H]-Leu binding by scintillation proximity assay); set-up: species or system Aquifex aeolicus; conditions: room temperature
Excerpt: The wild type of bacterial leucine transporter (LeuT WT) was examined because the functional state of this membrane protein is readily assessed by using a scintillation proximity assay (SPA) (Quick et al., Proc. Natl. Acad. Sci. USA 2007, 104, 3603-3608) to monitor binding of radiolabelled leucine. LeuT was initially extracted with DDM and then diluted with amphiphile-containing solutions to generate final TFA concentrations of 0.04 wt % or 0.2 wt % (residual DDM=0.005 wt %). Control samples had 0.05 wt % or 0.2 wt % DDM (overall, the final concentrations were CMC+0.04 wt % or CMC+0.2 wt %).
The wild type of the leucine transporter (LeuT WT) from Aquifex aeolicus was expressed in Escherichia coli essentially as described by Deckert et al. (Nature 392, 353-358 (1998)). The pET16b-LeuT WT-8His plasmid was kindly provided by Dr. Eric Gouaux, Vollum Institute, Portland Oreg. LeuT WT was extracted from isolated bacterial membranes solubilized with 1% DDM, bound to Ni^2+-affinity Chelating Sepharose Fast Flow resin (GE Healthcare, USA), and eluted in buffer consisted of 20 mM Tris-HCl (pH 8.0), 1 mM NaCl, 199 mM KCl, 0.05% DDM and 300 mM imidazole. […] After incubation at room temperature, at the indicated time points, samples were centrifuged and the protein concentration was determined by absorbance measurements at 280 nm. Concomitantly, [^3H]-Leu binding was determined using scintillation proximity assay (SPA) (Quick and Javitch, Proc. Natl. Acad. Sci. USA 104, 3603-3608 (2007)), with the reaction mixture consisted of 5 μL from the respective samples, 33.3 nM [^3H]-Leu (PerkinElmer, USA) and copper chelate (His-Tag) YSi beads (GE Healthcare). […] Normalized results are expressed as mean±SEM (n=2), as illustrated in FIG. 11 (long-term solubility of LeuT WT incubated in the presence of TFA-1, TFA-3, and DDM at (a) CMC+0.04 wt % or (b) CMC+0.2 wt % at room temperature).

[3] = Hydrodynamic radii of micelles by dynamic light scattering (DLS); format: physicochemical; conditions: 0.5 wt % amphiphile in water, 25° C.; mean ± SD, n = 3
Description: as §1
Each TFA and DDM was dissolved in distilled, deionized (DI) water to obtain 1 mL of a solution containing 0.5 wt % amphiphile. Each solution was filtered through a 0.02 μm filter for DLS measurements. A 100-mW, 532-nm laser (Compass 315M-100, Coherent, Santa Clara, Calif.) illuminated a temperature-controlled glass cell at 25° C. that was filled with a refractive-index matching fluid (decahydronaphthalene, Fisher Scientific, Pittsburgh, Pa.). The scattered light was collected at an angle of 90° for about 30 minutes. Rh values were determined using the integrated dynamics software that analyzes the time scale of the scattered light intensity fluctuations by an autocorrelation function. The autocorrelation functions (ACFs) were obtained using a BI-9000AT digital autocorrelator (Brookhaven Instruments, Holtsville, N.Y.). Measurements were repeated three times.

Structure (SMILES) | CMC [1] [µM] | CMC (wt %) [1] | maintaining LeuT WT function over 12 days ([2]; lower amphiphile concentration, CMC+0.04 wt %) | Rh (nm), hydrodynamic radius of micelles measured by dynamic light scattering [3] [nm] | maintaining LeuT WT function over 12 days ([2]; higher amphiphile concentration, CMC+0.2 wt %)
CCCCCCCCCCCCO[C@@H]1O[C@H](CO)[C@@H](O[C@H]2O[C@H](CO)[C@@H](O)[C@H](O)[C@H]2O)[C@H](O)[C@H]1O [DDM, dodecyl-β-D-maltoside, reference compound] | 170 | 0.009 wt % and 0.0087 wt % | slightly better than the TFAs | 3.4 ± 0.03 | –
C[C@H](CCC(=O)N(C)CCCN(C)C(=O)CC[C@@H](C)[C@H]1CC[C@H]2[C@@H]3CC[C@@H]4C[C@H](O[C@@H]5O[C@H](CO)[C@@H](O[C@H]6O[C@H](CO)[C@@H](O)[C@H](O)[C@H]6O)[C@H](O)[C@H]5O)CC[C@]4(C)[C@H]3C[C@H](O[C@@H]3O[C@H](CO)[C@@H](O[C@H]4O[C@H](CO)[C@@H](O)[C@H](O)[C@H]4O)[C@H](O)[C@H]3O)[C@]12C)[C@H]1CC[C@H]2[C@@H]3CC[C@@H]4C[C@H](O[C@@H]5O[C@H](CO)[C@@H](O[C@H]6O[C@H](CO)[C@@H](O)[C@H](O)[C@H]6O)[C@H](O)[C@H]5O)CC[C@]4(C)[C@H]3C[C@H](O[C@@H]3O[C@H](CO)[C@@H](O[C@H]4O[C@H](CO)[C@@H](O)[C@H](O)[C@H]4O)[C@H](O)[C@H]3O)[C@]12C [TFA-1] | 13 ± 1.4 | 0.0028 ± 0.0003 wt % | – | 1.9 ± 0.08 | matched DDM at the lower concentration
